What was measured:
[1] = test system: PBMCs & tumor cell lines (K562, Panc1, BxPc3, HT-29, A549, HTB46, HTB47, A375, M21, SKBR3, CRL2505); experiment: PBMCs alone or in co-culture with tumor cells of diverse origin: cytokines and granzyme; assay type: cell-based, human; conditions: for Granzyme / IFN-gamma / IL-2: 3 μM
Protocol: Isolated PBMCs, NK cells or CD8 positive cells were plated in Xvivo medium at 1.5*10^5 cells per in 96 well culture plates in the presence of 0.3*10^4 tumor cells where indicated. Cytokine secretion was determined by ELISA, immune cell activation (using Beckman-Coulter Abs CD25-PC5, CD69-PC7), cell viability and numbers by flow cytometry (Beckman-Coulter FC500 or Gallios) using 7-AAD exclusion as criterion for living cells. The tumor cell lines M21 and K562 represent two widely used tumor lines of melanoma and leukemia origin, respectively. However, tumor cells are known to employ different mechanisms to suppress immune functions, therefore it was investigated if the effects of compounds on immune cell activities against tumor cells can be generalized to a wide array of tumor cells of very diverse origins from different types of tumors. PBMCs were isolated and incubated with and without compounds, either alone or in co-culture with different tumor cells.

[2] = test system: aCD3/aCD28-stimulated human CD4+-T-cells; experiment: IL-2 production and activation markers in aCD3/aCD28 stimulated isolated human CD4+-T-cells; assay type: cell-based; conditions: IL-2 production at 3 μM compound
In short: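 CD4+ T cells isolated from buffy-coat PBMCs by microbeads were plated in Xvivo medium (1.5*10^5 cells/well) and stimulated with anti-CD3/28 mAbs plus compound. IL-2 measured by ELISA in supernatants at 24 h or 48 h; CD25 and proliferation by flow cytometry, CD69 at 24 h. Activity classes based on IL-2 at 3 μM compound.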

[3] = test system: immune cells & anti-GD2-antibodies bound on M21 melanoma cells; experiment: Immune cells stimulated by anti-GD2-antibody bound on M21 melanoma cells: TNF-alpha, activated NK cells; assay type: cell-based, human
Protocol: Isolated PBMCs, NK cells or CD8 positive cells were plated in Xvivo medium at 1.5*10^5 cells per in 96 well culture plates in the presence of 0.3*10^4 tumor cells where indicated. Cytokine secretion was determined by ELISA, immune cell activation (using Beckman-Coulter Abs CD25-PC5, CD69-PC7), cell viability and numbers by flow cytometry (Beckman-Coulter FC500 or Gallios) using 7-AAD exclusion as criterion for living cells. […] Antibodies that are bound to pathogens or pathogen-infected cells trigger activation of immune cells via Fc-receptors, that are expressed particularly on NK cells and myeloid cells. This mechanism is also utilized for cancer therapies when therapeutic antibodies against antigens which are preferentially expressed on cancer cells are administrated to patients which in turn recruit and activate immune cells to directly attack cancer cells. The GD2-antigen is strongly expressed on cancer cells of particular origins (among neuroblastoma and melanoma) and is therefore developed clinically as anti-cancer therapy. For M21 melanoma cells, GD2 is the only antigen that has been characterized to be accessible as tumor antigen. Therefore, an anti-GD2-antibody that was available in clinically grade quality was employed to test whether compounds can enhance the Fc-receptor mediated activation of immune cells to tumor-cell bound therapeutic antibodies.

non-stimulated PBMCs = experiment: Non-stimulated PBMCs: cytokine secretion and signs of T-cell activation; assay type: cell-based, human
From the text: This is an important finding for compounds that shall selectively act on T cells which have been activated by presence of antigen from pathogens or tumors, but shall not lead to an unwanted general activation of all T cells of a patient.

[4] = PBMC & M21 tumor cells & anti-GD2 Ab high concentration, 0.3 μM
[5] = PBMC & M21 tumor cells & anti-GD2 Ab high concentration, 1 μM
[6] = PBMC & M21 tumor cells & anti-GD2 Ab high concentration, 3 μM
[7] = PBMC & M21 tumor cells & anti-GD2 Ab high concentration, 10 μM
[8] = PBMC & M21 tumor cells & anti-GD2 Ab low concentration, 0.3 μM
[9] = PBMC & M21 tumor cells & anti-GD2 Ab low concentration, 1 μM
[10] = PBMC & M21 tumor cells & anti-GD2 Ab low concentration, 3 μM
[11] = PBMC & M21 tumor cells & anti-GD2 Ab low concentration, 10 μM
[12] = PBMC & M21 tumor cells only, 0.3 μM
[13] = PBMC & M21 tumor cells only, 1 μM
[14] = PBMC & M21 tumor cells only, 3 μM
[15] = PBMC & M21 tumor cells only, 10 μM

Which Granzyme ([1]; PBMC & A375) does the source give for `Cl.N[C@H]1CSc2cc(F)c(C(=O)NCCCC(F)(F)F)cc2N(Cc2ccc(Cl)cc2)C1=O` [Example 40, (3R)-3-amino-5-[(4-chlorophenyl)methyl]-8-fluoro-4-oxo-N-(4,4,4-trifluorobutyl)-2,3,4,5-tetrahydro-1,5-benzothiazepine-7-carboxamide hydrochloride] here?
Its Granzyme is 0.053 ng/mL.

What about the IFN-gamma ([1]; PBMC & A375) of the same compound?
Its IFN-gamma is 0.142 ng/mL.

And the IL-2 ([1]; PBMC & A375)?
Its IL-2 is 0.278 ng/mL.

What about the Granzyme ([1]; PBMC & A549) of the same compound?
Its Granzyme is 0.020 ng/mL.

And the IFN-gamma ([1]; PBMC & A549)?
Its IFN-gamma is 0.214 ng/mL.

What about the IL-2 ([1]; PBMC & A549) of the same compound?
Its IL-2 is 0.018 ng/mL.

What about the Granzyme ([1]; PBMC & BxPc3) of the same compound?
The Granzyme was 0.008 ng/mL.

And the IFN-gamma ([1]; PBMC & BxPc3)?
Its IFN-gamma is 0.088 ng/mL.

And the IL-2 ([1]; PBMC & BxPc3)?
Its IL-2 is 0.092 ng/mL.

And the Granzyme ([1]; PBMC & CRL2505)?
The Granzyme was 0.780 ng/mL.

What about the IFN-gamma ([1]; PBMC & CRL2505) of the same compound?
Its IFN-gamma is 0.663 ng/mL.

What about the IL-2 ([1]; PBMC & CRL2505) of the same compound?
The IL-2 was 0.012 ng/mL.

What about the Granzyme ([1]; PBMC & HT-29) of the same compound?
The Granzyme was 0.003 ng/mL.

What about the IFN-gamma ([1]; PBMC & HT-29) of the same compound?
The IFN-gamma was 0.022 ng/mL.

What about the IL-2 ([1]; PBMC & HT-29) of the same compound?
Its IL-2 is 0.033 ng/mL.

And the Granzyme ([1]; PBMC & HTB46)?
The Granzyme was 0.404 ng/mL.

And the IFN-gamma ([1]; PBMC & HTB46)?
Its IFN-gamma is 0.665 ng/mL.

And the IL-2 ([1]; PBMC & HTB46)?
Its IL-2 is 0.168 ng/mL.

And the Granzyme ([1]; PBMC & HTB47)?
The Granzyme was 0.072 ng/mL.

What about the IFN-gamma ([1]; PBMC & HTB47) of the same compound?
The IFN-gamma was 0.277 ng/mL.

And the IL-2 ([1]; PBMC & HTB47)?
Its IL-2 is 0.075 ng/mL.

What about the Granzyme ([1]; PBMC & K562) of the same compound?
Its Granzyme is 0.011 ng/mL.

What about the IFN-gamma ([1]; PBMC & K562) of the same compound?
The IFN-gamma was 0.000 ng/mL.

What about the IL-2 ([1]; PBMC & K562) of the same compound?
Its IL-2 is 0.000 ng/mL.

And the Granzyme ([1]; PBMC & M21)?
The Granzyme was 0.001 ng/mL.

What about the IFN-gamma ([1]; PBMC & M21) of the same compound?
The IFN-gamma was 0.000 ng/mL.

And the IL-2 ([1]; PBMC & M21)?
The IL-2 was 0.037 ng/mL.

And the Granzyme ([1]; PBMC & Panc1)?
Its Granzyme is 0.005 ng/mL.

What about the IFN-gamma ([1]; PBMC & Panc1) of the same compound?
Its IFN-gamma is 0.000 ng/mL.

And the IL-2 ([1]; PBMC & Panc1)?
The IL-2 was 0.013 ng/mL.

And the Granzyme ([1]; PBMC & SKBR3)?
The Granzyme was 0.001 ng/mL.

What about the IFN-gamma ([1]; PBMC & SKBR3) of the same compound?
Its IFN-gamma is 0.000 ng/mL.

And the IL-2 ([1]; PBMC & SKBR3)?
The IL-2 was 0.005 ng/mL.

And the Granzyme ([1]; PBMC only)?
Its Granzyme is 0.001 ng/mL.

And the IFN-gamma ([1]; PBMC only)?
Its IFN-gamma is 0.000 ng/mL.

What about the IL-2 ([1]; PBMC only) of the same compound?
Its IL-2 is 0.000 ng/mL.

And the “secretion of cytokines (IL-2, IFN-gamma) and granzyme” value ([1]; PBMCs in co-culture with diverse tumor cell lines)?
The value was “enhanced secretion of cytokines and granzyme strongly specifically upon tumor cell contact in diverse tumor cell lines”.

And the “enhancement of cytokine and granzyme secretion” value ([1]; PBMCs in the absence of tumor cells)?
Its value is “such effect was not detected in the absence of tumor cells”.

And the “Activity Class CD4+” value [2]?
The value was “B (IL-2 production at 3 μM compound concentration between 2-10 ng/mL)”.

And the TNF-alpha [3, 4]?
Its TNF-alpha is 106.30 pg/mL.

And the “strongly activated NK cells” value [3, 4]?
The value was 23.55 % CD25+CD69+.

What about the TNF-alpha [3, 5] of the same compound?
Its TNF-alpha is 142.98 pg/mL.

What about the “strongly activated NK cells” value [3, 5] of the same compound?
Its value is 32.63 % CD25+CD69+.

And the TNF-alpha [3, 6]?
Its TNF-alpha is 192.34 pg/mL.

What about the “strongly activated NK cells” value [3, 6] of the same compound?
Its value is 42.50 % CD25+CD69+.

And the TNF-alpha [3, 7]?
Its TNF-alpha is 257.96 pg/mL.

And the “strongly activated NK cells” value [3, 7]?
Its value is 42.22 % CD25+CD69+.

What about the TNF-alpha [3, 8] of the same compound?
The TNF-alpha was 36.53 pg/mL.

And the “strongly activated NK cells” value [3, 8]?
The value was 6.92 % CD25+CD69+.

And the TNF-alpha [3, 9]?
The TNF-alpha was 55.72 pg/mL.

And the “strongly activated NK cells” value [3, 9]?
The value was 11.88 % CD25+CD69+.

What about the TNF-alpha [3, 10] of the same compound?
Its TNF-alpha is 93.25 pg/mL.

What about the “strongly activated NK cells” value [3, 10] of the same compound?
The value was 17.22 % CD25+CD69+.

What about the TNF-alpha [3, 11] of the same compound?
The TNF-alpha was 114.88 pg/mL.

What about the “strongly activated NK cells” value [3, 11] of the same compound?
The value was 20.25 % CD25+CD69+.

And the TNF-alpha [3, 12]?
The TNF-alpha was 17.47 pg/mL.

And the “strongly activated NK cells” value [3, 12]?
The value was 0.75 % CD25+CD69+.

What about the TNF-alpha [3, 13] of the same compound?
The TNF-alpha was 17.59 pg/mL.

And the “strongly activated NK cells” value [3, 13]?
Its value is 1.10 % CD25+CD69+.

What about the TNF-alpha [3, 14] of the same compound?
The TNF-alpha was 28.95 pg/mL.

What about the “strongly activated NK cells” value [3, 14] of the same compound?
The value was 2.40 % CD25+CD69+.

And the TNF-alpha [3, 15]?
The TNF-alpha was 38.00 pg/mL.

What about the “strongly activated NK cells” value [3, 15] of the same compound?
The value was 2.19 % CD25+CD69+.

What about the “reactivity of immune cells to anti-GD2-antibodies bound on M21 melanoma cells” value ([3]; cytokine secretion, NK cell activation) of the same compound?
Its value is “enhanced reactivity of immune cells to anti-GD2-antibodies bound on M21 melanoma cells, resulting in increased secretion of cytokine and activation of NK cells”.

And the “cytokine secretion or other signs of T-cell activation” value (non-stimulated PBMCs)?
The value was “did not enhance cytokine secretion or other signs of T-cell activation”.

From patent US10472341B2, “Bicyclic tetrahydrothiazepine derivatives useful for the treatment of neoplastic and/or infectious diseases” (APEIRON BIOLOGICS AG, priority 2015, dated 2019)
